This is an account of results in patent publication US10858335B2 (Rigel Pharmaceuticals, Inc., priority 2014, dated 2020).

One test relates to GDF8 signaling (p-SMAD-3 (Ser423/425)). As to the kind of experiment: AlphaScreen SureFire SMAD3 (p-Ser423/425) assay, GDF8-stimulated cells (GDF pSMAD). In kind it is cell-based. Conditions: MPC11; GDF8-stimulated; p-SMAD3 AlphaScreen; read-out: GDF pSMAD (MPC11) (inhibition of GDF8 signaling). (In Alpha technology, singlet oxygen from a donor bead excites a nearby acceptor bead.)
For `Nc1ncnc2ccc(-c3cccnc3-c3cc(Cl)ccc3F)cc12` [compound 818, 6-(2-(5-Chloro-2-fluorophenyl)pyridin-3-yl)quinazolin-4-amine], the IC50 was 77.4 nM.

Regarding `Nc1ncnc2ccc(-c3cccnc3-c3cc(Cl)c(F)cc3F)cc12` [compound 819, 6-(2-(5-Chloro-2,4-difluorophenyl)pyridin-3-yl)quinazolin-4-amine], the IC50 was determined as 119 nM.

Still in this test, the particulars now being: Mus musculus, MPC-11, MPC11; GDF8-stimulated; p-SMAD3 AlphaScreen; read-out: GDF pSMAD (MPC11) (inhibition of GDF8 signaling).
On to `Nc1n[nH]c2cc(-c3cccnc3-c3ccc(F)c(Cl)c3)ccc12` [compound 800, 6-(2-(3-Chloro-4-fluorophenyl)pyridin-3-yl)-1H-indazol-3-amine], for which the IC50 is 879 nM. Still for that read-out and setting: next, `Cc1cc(-c2ncccc2-c2ccc3ncc(C(=O)NCC45CCCN4CCC5)n3c2)ccc1F` [compound 802, 6-(2-(4-Fluoro-3-methylphenyl)pyridin-3-yl)-N-((tetrahydro-1H-pyrrolizin-7a(5H)-yl)methyl)imidazo[1,2-a]pyridine-3-carboxamide]: 5830 nM; `Cc1cc(-c2ncccc2-c2ccc3ncc(C(=O)NCCC45CCCN4CCC5)n3c2)ccc1F` [compound 803, 6-(2-(4-Fluoro-3-methylphenyl)pyridin-3-yl)-N-(2-(tetrahydro-1H-pyrrolizin-7a(5H)-yl)ethyl)imidazo[1,2-a]pyridine-3-carboxamide]: 2260 nM. For `Cc1cc(-c2ncccc2-c2ccn3ncc(C(=O)NCC45CCCN4CCC5)c3c2)ccc1F` [compound 804, 5-(2-(4-Fluoro-3-methylphenyl)pyridin-3-yl)-N-((tetrahydro-1H-pyrrolizin-7a(5H)-yl)methyl)pyrazolo[1,5-a]pyridine-3-carboxamide], the IC50 was 10100 nM.

On to `Cc1cc(-c2ncccc2-c2ccn3ncc(C(=O)NCCC45CCCN4CCC5)c3c2)ccc1F` [compound 805, 5-(2-(4-Fluoro-3-methylphenyl)pyridin-3-yl)-N-(2-(tetrahydro-1H-pyrrolizin-7a(5H)-yl)ethyl)pyrazolo[1,5-a]pyridine-3-carboxamide], for which the IC50 came out at 953 nM.

Turning to `Cc1cc(-c2ncccc2-c2cn3ccnc3cc2C)ccc1F` [compound 808, 6-(2-(4-Fluoro-3-methylphenyl)pyridin-3-yl)-7-methylimidazo[1,2-a]pyridine], the IC50 is 1540 nM.

With `Cc1cc(-c2ncccc2-c2ccc3ncnn3c2C)ccc1F` [compound 809, 6-(2-(4-Fluoro-3-methylphenyl)pyridin-3-yl)-5-methyl-[1,2,4]triazolo[1,5-a]pyridine], the IC50 was found to be 4000 nM.

With `Cc1c(-c2cccnc2-c2ccc(F)c(Cl)c2)ccc2ncnn12` [compound 810, 6-(2-(3-Chloro-4-fluorophenyl)pyridin-3-yl)-5-methyl-[1,2,4]triazolo[1,5-a]pyridine], the IC50 was 5780 nM. Still for that read-out and setting: the value for `Cc1c(-c2cccnc2-c2cccc(Cl)c2)ccc2ncnn12` [compound 811, 6-(2-(3-Chlorophenyl)pyridin-3-yl)-5-methyl-[1,2,4]triazolo[1,5-a]pyridine] was 2920 nM; that for `Cc1c(-c2cccnc2-c2cc(Cl)ccc2F)ccc2ncnn12` [compound 812, 6-(2-(5-Chloro-2-fluorophenyl)pyridin-3-yl)-5-methyl-[1,2,4]triazolo[1,5-a]pyridine] was 2140 nM. With `Cc1c(-c2cccnc2-c2cc(Cl)c(F)cc2F)ccc2ncnn12` [compound 813, 6-(2-(5-Chloro-2,4-difluorophenyl)pyridin-3-yl)-5-methyl-[1,2,4]triazolo[1,5-a]pyridine], the IC50 is 2430 nM. For the molecule `CC(=O)NCCNC(=O)c1cnc2ccc(-c3cccnc3-c3ccc(F)c(C)c3)cn12` [compound 815, N-(2-Acetamidoethyl)-6-(2-(4-fluoro-3-methylphenyl)pyridin-3-yl)imidazo[1,2-a]pyridine-3-carboxamide], the IC50 was 941 nM. With `CC(=O)NCCCNC(=O)c1cnc2ccc(-c3cccnc3-c3ccc(F)c(C)c3)cn12` [compound 816, N-(3-Acetamidopropyl)-6-(2-(4-fluoro-3-methylphenyl)pyridin-3-yl)imidazo[1,2-a]pyridine-3-carboxamide], the IC50 was found to be 1610 nM. The same measure, in the same setting: the value for `Cc1cc(-c2ncccc2-c2ccc3ncc(C(=O)NCCN4CCOC4=O)n3c2)ccc1F` [compound 817, 6-(2-(4-Fluoro-3-methylphenyl)pyridin-3-yl)-N-(2-(2-oxooxazolidin-3-yl)ethyl)imidazo[1,2-a]pyridine-3-carboxamide] was 584 nM; that for `COc1ncnc2ccc(-c3cccnc3-c3cc(Cl)ccc3F)cc12` [compound 820, 6-(2-(5-Chloro-2-fluorophenyl)pyridin-3-yl)-4-methoxyquinazoline] was 3060 nM. For the molecule `COc1ncnc2ccc(-c3cccnc3-c3cc(Cl)c(F)cc3F)cc12` [compound 821, 6-(2-(5-Chloro-2,4-difluorophenyl)pyridin-3-yl)-4-methoxyquinazoline], the IC50 was determined as 2160 nM.

Take `O=c1[nH]cnc2ccc(-c3cccnc3-c3cc(Cl)ccc3F)cc12` [compound 822, 6-(2-(5-Chloro-2-fluorophenyl)pyridin-3-yl)quinazolin-4(3H)-one]: the IC50 stood at 127 nM. Regarding `O=c1[nH]cnc2ccc(-c3cccnc3-c3cc(Cl)c(F)cc3F)cc12` [compound 823, 6-(2-(5-Chloro-2,4-difluorophenyl)pyridin-3-yl)quinazolin-4(3H)-one], the IC50 came out at 214 nM.

As to `Cc1cc(-c2ncccc2-c2ccc3nccc(N)c3c2)ccc1F` [compound 836, 6-(2-(4-Fluoro-3-methylphenyl)pyridin-3-yl)quinolin-4-amine], the IC50 worked out at 5940 nM.

For `Nc1ccnc2ccc(-c3cccnc3-c3ccc(F)c(Cl)c3)cc12` [compound 837, 6-(2-(3-Chloro-4-fluorophenyl)pyridin-3-yl)quinolin-4-amine], the IC50 was determined as 4860 nM. Regarding `COc1ccnc2ccc(-c3cccnc3-c3cc(Cl)ccc3F)cc12` [compound 840, 6-(2-(5-Chloro-2-fluorophenyl)pyridin-3-yl)-4-methoxyquinoline], the IC50 was 8140 nM. Take `COc1ccnc2ccc(-c3cccnc3-c3cccc(Cl)c3)cc12` [compound 841, 6-(2-(3-Chlorophenyl)pyridin-3-yl)-4-methoxyquinoline]: the IC50 came to 7640 nM. Consider `COc1ccnc2ccc(-c3cccnc3-c3cc(Cl)c(F)cc3F)cc12` [compound 842, 6-(2-(5-Chloro-2,4-difluorophenyl)pyridin-3-yl)-4-methoxyquinoline], for which the IC50 was determined as 17400 nM.

In the case of `NC(=O)c1cnc2ccc(-c3cccnc3-c3ccc(F)c(Cl)c3)cn12` [compound 843, 6-(2-(3-Chloro-4-fluorophenyl)pyridin-3-yl)imidazo[1,2-a]pyridine-3-carboxamide], the IC50 was found to be 21.3 nM.

Consider `Fc1ccc(-c2ncccc2-c2ccc3ncc(-c4ncn[nH]4)n3c2)cc1Cl` [compound 844, 6-(2-(3-Chloro-4-fluorophenyl)pyridin-3-yl)-3-(1H-1,2,4-triazol-5-yl)imidazo[1,2-a]pyridine], for which the IC50 was 32.4 nM. Still for that read-out and setting: the value for `Fc1ccc(-c2ncccc2-c2ccc3ncc(-c4ncc[nH]4)n3c2)cc1Cl` [compound 845, 6-(2-(3-Chloro-4-fluorophenyl)pyridin-3-yl)-3-(1H-imidazol-2-yl)imidazo[1,2-a]pyridine] was 58.8 nM; that for `Cc1cc(-c2ncccc2-c2ccc3nccc(C(N)=O)c3c2)ccc1F` [compound 846, 6-(2-(4-Fluoro-3-methylphenyl)pyridin-3-yl)quinoline-4-carboxamide] was 14300 nM.

For `NC(=O)c1ccnc2ccc(-c3cccnc3-c3cccc(Cl)c3)cc12` [compound 848, 6-(2-(3-Chlorophenyl)pyridin-3-yl)quinoline-4-carboxamide], the IC50 came to 11100 nM. For the molecule `NC(=O)c1ccnc2ccc(-c3cccnc3-c3cc(Cl)ccc3F)cc12` [compound 849, 6-(2-(5-Chloro-2-fluorophenyl)pyridin-3-yl)quinoline-4-carboxamide], the IC50 is 18100 nM. On to `NC(=O)c1ccnc2ccc(-c3cccnc3-c3cc(Cl)c(F)cc3F)cc12` [compound 850, 6-(2-(5-Chloro-2,4-difluorophenyl)pyridin-3-yl)quinoline-4-carboxamide], for which the IC50 amounted to 20700 nM. Consider `Fc1ccc(-c2ncccc2-c2ccc3ncc(-c4cc[nH]n4)n3c2)cc1Cl` [compound 852, 6-(2-(3-Chloro-4-fluorophenyl)pyridin-3-yl)-3-(1H-pyrazol-3-yl)imidazo[1,2-a]pyridine], for which the IC50 was found to be 207 nM.

For `Cn1ccc(-c2cnc3ccc(-c4cccnc4-c4ccc(F)c(Cl)c4)cn23)n1` [compound 853, 6-(2-(3-Chloro-4-fluorophenyl)pyridin-3-yl)-3-(1-methyl-1H-pyrazol-3-yl)imidazo[1,2-a]pyridine], the IC50 was 881 nM. With `COc1cnc(-c2ccc(F)c(C)c2)c(-c2ccn3ncnc3c2)c1` [compound 854, 7-(2-(4-Fluoro-3-methylphenyl)-5-methoxypyridin-3-yl)-[1,2,4]triazolo[1,5-a]pyridine], the IC50 is 4670 nM.

In the case of `COc1cnc(-c2cccc(Cl)c2)c(-c2ccn3ncnc3c2)c1` [compound 855, 7-(2-(3-Chlorophenyl)-5-methoxypyridin-3-yl)-[1,2,4]triazolo[1,5-a]pyridine], the IC50 came to 3440 nM.

Regarding `COc1cnc(-c2ccc(F)c(Cl)c2)c(-c2ccn3ncnc3c2)c1` [compound 856, 7-(2-(3-Chloro-4-fluorophenyl)-5-methoxypyridin-3-yl)-[1,2,4]triazolo[1,5-a]pyridine], the IC50 was found to be 5580 nM. Same read-out and setting: next, `COc1cnc(-c2cc(Cl)c(F)cc2F)c(-c2ccn3ncnc3c2)c1` [compound 857, 7-(2-(5-Chloro-2,4-difluorophenyl)-5-methoxypyridin-3-yl)-[1,2,4]triazolo[1,5-a]pyridine]: 1850 nM; `COc1cnc(-c2cc(Cl)ccc2F)c(-c2ccn3ncnc3c2)c1` [compound 858, 7-(2-(5-Chloro-2-fluorophenyl)-5-methoxypyridin-3-yl)-[1,2,4]triazolo[1,5-a]pyridine]: 2370 nM; `COc1cnc(-c2cccc(C(F)(F)F)c2)c(-c2ccn3ncnc3c2)c1` [compound 859]: 3700 nM.
